Measurements from patent US8637676B2, “Dual-acting benzoimidazole antihypertensive agents” (Theravance, Inc., priority 2007, dated 2014).

Tests used:
human AT1 receptor = target: T1, human AT1 receptor (Homo sapiens, UniProt P30556); assay: AT1 radioligand binding assay (Assay 1); settings: displacement of [Eu]AngII, membranes of CHO-K1 cells expressing human AT1 receptor; read-out: pKi at the AT1 receptor (converted)
T1 construct: expressed in transfected cells; membranes
T1 sequence (P30556 1-359): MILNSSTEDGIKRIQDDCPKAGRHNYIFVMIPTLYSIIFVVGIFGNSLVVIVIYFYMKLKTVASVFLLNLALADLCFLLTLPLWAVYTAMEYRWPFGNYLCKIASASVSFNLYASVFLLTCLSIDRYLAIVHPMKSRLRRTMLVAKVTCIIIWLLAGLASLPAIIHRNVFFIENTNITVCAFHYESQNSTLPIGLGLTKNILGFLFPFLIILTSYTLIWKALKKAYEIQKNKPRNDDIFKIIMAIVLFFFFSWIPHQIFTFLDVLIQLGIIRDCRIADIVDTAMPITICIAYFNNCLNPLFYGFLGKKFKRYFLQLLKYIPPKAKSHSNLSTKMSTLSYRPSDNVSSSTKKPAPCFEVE
Protocol: These in vitro assays were used to assess the ability of test compounds to bind to the AT1 and the AT2 receptors.
Membrane Preparation From Cells Expressing Human AT1 or AT2 Receptors
Chinese hamster ovary (CHO-K^1) derived cell lines stably expressing the cloned human AT1 or AT2 receptors, respectively, were grown in HAM's-F12 medium supplemented with 10% fetal bovine serum, 10 μg/ml penicillin/streptomycin, and 500 μg/ml geneticin in a 5% CO2 humidified incubator at 37° C. AT2 receptor expressing cells were grown in the additional presence of 100 nM PD123,319 (AT2 antagonist). When cultures reached 80-95% confluence, the cells were washed thoroughly in PBS and lifted with 5 mM EDTA. Cells were pelleted by centrifugation and snap frozen in MeOH-dry ice and stored at −80° C. until further use.
For membrane preparation, cell pellets were resuspended in lysis buffer (25 mM Tris/HCl pH 7.5 at 4° C., 1 mM EDTA, and one tablet of Complete Protease Inhibitor Cocktail Tablets with 2 mM EDTA per 50 mL buffer (Roche cat.#1697498, Roche Molecular Biochemicals, Indianapolis, Ind.)) and homogenized using a tight-fitting Dounce glass homogenizer (10 strokes) on ice. The homogenate was centrifuged at 1000×g, the supernatant was collected and centrifuged at 20,000×g. […] Protein concentration of the membrane suspension was determined by the method described in Bradford (1976) Anal Biochem. 72:248-54. […]

NEP enzyme = target: T2, NEP enzyme (Homo sapiens, UniProt P08473); assay: In vitro NEP enzyme inhibition assay (Assay 2); type: biochemical; settings: fluorogenic peptide substrate; species of NEP (human or rat) not given; read-out: pIC50 for the NEP enzyme (converted)
T2 construct: purchased R&D Systems, Minneapolis, Minn; 1182-ZN
Protocol: The inhibitory activities of compounds at human and rat NEP and human ACE were determined using in vitro assays as described below.
Rat NEP was prepared from the kidneys of adult Sprague Dawley rats. Whole kidneys were washed in cold PBS and brought up in ice-cold lysis buffer (1% Triton X-114, 150 mM NaCl, 50 mM Tris pH 7.5; Bordier (1981) J. Biol. Chem. 256:1604-1607) in a ratio of 5 mL of buffer for every gram of kidney. Samples were homogenized using a polytron hand held tissue grinder on ice. Homogenates were centrifuged at 1000×g in a swinging bucket rotor for 5 minutes at 3° C. The pellet was resuspended in 20 mL of ice cold lysis buffer and incubated on ice for 30 minutes. […] Protein concentrations were quantitated using a BCA detection system with BSA as a standard. […]
The assays were performed in 384-well white opaque plates at room temperature using the respective fluorogenic peptides at a concentration of 10 μM in assay buffer (50 mM Tris/HCl at 25° C., 100 mM NaCl, 0.01% Tween-20, 1 μM Zn, 0.025% BSA). […] The rat NEP enzyme preparation was used at a concentration that yielded quantitative proteolysis of 3 μM of Mca-RRL within 20 minutes at room temperature.
Assays were started by adding 25 μL of enzyme to 12.5 μL of test compound at 12 concentrations (10 μM to 20 pM). […] Plates were read on a fluorometer with excitation and emission wavelengths set to 320 nm and 405 nm, respectively. […]

T2 sequence (P08473 52-750 limits assumed): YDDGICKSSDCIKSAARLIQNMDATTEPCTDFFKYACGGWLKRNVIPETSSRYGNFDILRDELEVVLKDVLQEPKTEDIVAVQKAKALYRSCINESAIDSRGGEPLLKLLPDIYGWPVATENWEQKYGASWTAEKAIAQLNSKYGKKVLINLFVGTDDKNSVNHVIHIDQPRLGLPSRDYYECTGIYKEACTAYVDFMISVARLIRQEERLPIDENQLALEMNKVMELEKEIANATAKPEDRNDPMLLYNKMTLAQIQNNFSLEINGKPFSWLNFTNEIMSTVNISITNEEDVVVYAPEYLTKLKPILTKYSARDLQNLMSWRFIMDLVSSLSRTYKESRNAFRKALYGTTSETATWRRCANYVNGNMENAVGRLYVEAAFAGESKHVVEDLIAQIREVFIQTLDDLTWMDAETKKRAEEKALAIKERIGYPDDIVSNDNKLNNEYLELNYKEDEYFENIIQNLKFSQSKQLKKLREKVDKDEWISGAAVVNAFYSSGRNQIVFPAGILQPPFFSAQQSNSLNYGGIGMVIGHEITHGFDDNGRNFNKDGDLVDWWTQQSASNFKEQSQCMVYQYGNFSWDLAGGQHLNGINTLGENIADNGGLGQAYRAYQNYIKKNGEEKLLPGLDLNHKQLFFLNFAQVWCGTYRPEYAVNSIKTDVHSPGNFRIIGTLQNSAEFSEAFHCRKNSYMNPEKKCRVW

CCCc1nc2c(C)cc(C(=O)N[C@@H](CC(=O)NO)Cc3ccccc3)cc2n1Cc1ccc(-c2ccccc2C(=O)O)cc1 [Example 1, 4′-[6-((R)-1-Benzyl-2-hydroxycarbamoylethylcarbamoyl)-4-methyl-2-propylbenzoimidazol-1-ylmethyl]biphenyl-2-carboxylic Acid]
Ki (human AT1 receptor): < 100 nM
IC50 (NEP enzyme): ≤ 100 nM
